Measurements from ChEMBL document CHEMBL3352741, “Discovery of VU0431316: a negative allosteric modulator of mGlu5 with activity in a mouse model of anxiety” (Bioorg Med Chem Lett, 2014).

Tests used:
[1] = biological target: Metabotropic glutamate receptor 5 (Rattus norvegicus, UniProt P31424); assay: Negative allosteric modulator activity at rat mGlu5 expressed in HEK293A cells assessed as reduction in glutamate-induced calcium mobilization; assay type: functional, cell-based, HEK293-A
[2] = biological target: Metabotropic glutamate receptor 5 (Rattus norvegicus) (UniProt P31424); assay: Negative allosteric modulator activity at rat mGlu5 expressed in HEK293A cells assessed as reduction in 100 uM glutamate-induced calcium mobilization at 30 uM; assay type: functional, cell-based; conditions: HEK293-A
Sequence of Metabotropic glutamate receptor 5 (Rattus norvegicus) (P31424 21-1203 limits assumed): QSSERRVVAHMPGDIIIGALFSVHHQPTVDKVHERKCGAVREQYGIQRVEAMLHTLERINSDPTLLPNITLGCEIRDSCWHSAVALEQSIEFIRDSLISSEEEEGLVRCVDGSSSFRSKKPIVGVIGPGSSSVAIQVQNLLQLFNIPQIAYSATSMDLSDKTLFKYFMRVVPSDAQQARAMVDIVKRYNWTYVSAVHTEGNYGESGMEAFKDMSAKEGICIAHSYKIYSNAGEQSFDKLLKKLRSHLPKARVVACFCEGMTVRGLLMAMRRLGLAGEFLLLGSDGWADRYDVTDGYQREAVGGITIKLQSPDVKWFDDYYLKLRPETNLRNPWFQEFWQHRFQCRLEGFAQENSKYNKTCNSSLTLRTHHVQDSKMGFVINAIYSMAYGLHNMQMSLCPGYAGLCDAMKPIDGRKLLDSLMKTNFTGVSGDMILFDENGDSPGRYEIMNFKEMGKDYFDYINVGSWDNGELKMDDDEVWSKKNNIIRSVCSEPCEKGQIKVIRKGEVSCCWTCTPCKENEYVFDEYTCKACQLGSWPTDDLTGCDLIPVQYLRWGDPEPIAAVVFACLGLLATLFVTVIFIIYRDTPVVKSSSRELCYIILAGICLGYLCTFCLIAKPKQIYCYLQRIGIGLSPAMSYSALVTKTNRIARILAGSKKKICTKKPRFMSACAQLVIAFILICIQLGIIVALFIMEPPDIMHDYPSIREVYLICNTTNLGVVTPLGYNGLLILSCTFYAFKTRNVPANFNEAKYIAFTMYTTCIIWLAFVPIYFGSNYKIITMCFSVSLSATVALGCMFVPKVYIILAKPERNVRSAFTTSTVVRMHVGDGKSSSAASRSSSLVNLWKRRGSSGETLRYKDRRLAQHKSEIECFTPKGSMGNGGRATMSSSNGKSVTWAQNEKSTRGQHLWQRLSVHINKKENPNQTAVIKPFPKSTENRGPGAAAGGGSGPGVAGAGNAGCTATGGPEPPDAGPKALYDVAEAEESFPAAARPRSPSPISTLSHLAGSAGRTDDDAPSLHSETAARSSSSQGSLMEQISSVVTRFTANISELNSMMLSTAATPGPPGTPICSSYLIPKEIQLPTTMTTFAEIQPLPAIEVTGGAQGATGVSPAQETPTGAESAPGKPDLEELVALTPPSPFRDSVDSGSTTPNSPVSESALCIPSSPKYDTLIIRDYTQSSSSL

Sequence of Metabotropic glutamate receptor 5 (P31424 whole entry): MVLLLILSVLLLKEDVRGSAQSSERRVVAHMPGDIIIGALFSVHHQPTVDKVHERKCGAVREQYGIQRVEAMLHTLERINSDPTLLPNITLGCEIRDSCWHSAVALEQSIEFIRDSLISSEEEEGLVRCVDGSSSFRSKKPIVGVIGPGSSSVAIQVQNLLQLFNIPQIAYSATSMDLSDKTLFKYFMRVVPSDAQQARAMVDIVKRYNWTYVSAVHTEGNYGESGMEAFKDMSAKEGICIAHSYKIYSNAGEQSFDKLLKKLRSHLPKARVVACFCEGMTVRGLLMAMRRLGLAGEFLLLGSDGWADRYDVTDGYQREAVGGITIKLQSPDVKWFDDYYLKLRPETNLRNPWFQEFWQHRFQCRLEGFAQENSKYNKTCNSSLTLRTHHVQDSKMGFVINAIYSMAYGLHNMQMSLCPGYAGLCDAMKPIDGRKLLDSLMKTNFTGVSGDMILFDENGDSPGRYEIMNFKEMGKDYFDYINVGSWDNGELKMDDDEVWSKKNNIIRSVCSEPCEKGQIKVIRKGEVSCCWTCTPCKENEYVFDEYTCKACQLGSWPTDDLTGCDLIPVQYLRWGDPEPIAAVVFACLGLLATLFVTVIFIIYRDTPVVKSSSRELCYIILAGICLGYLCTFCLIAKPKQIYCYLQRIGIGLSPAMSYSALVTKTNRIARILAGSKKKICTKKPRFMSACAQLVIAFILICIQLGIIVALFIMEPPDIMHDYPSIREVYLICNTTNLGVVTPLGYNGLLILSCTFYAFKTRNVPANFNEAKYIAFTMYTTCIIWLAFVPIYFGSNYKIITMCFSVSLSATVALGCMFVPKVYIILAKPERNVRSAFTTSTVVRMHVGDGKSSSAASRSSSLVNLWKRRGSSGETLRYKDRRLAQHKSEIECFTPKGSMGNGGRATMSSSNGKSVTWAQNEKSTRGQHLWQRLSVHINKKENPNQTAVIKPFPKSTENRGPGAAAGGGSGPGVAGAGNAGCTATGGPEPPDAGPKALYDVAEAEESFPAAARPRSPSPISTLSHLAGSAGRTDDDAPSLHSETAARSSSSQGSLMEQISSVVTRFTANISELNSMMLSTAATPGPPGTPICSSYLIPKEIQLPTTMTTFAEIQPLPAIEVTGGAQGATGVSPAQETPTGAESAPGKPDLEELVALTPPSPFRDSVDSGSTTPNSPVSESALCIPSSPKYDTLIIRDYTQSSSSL

Compound | IC50 [1] | %max [2]
O=C(Nc1cncc(Oc2cncc(F)c2)n1)c1cc(Cl)cc(Cl)c1 | > 30 µM | 
O=C(Nc1cncc(Oc2cncc(F)c2)n1)c1cccc(Cl)c1F | > 30 µM | 
O=C(Nc1cncc(Oc2cncc(F)c2)n1)c1cncs1 | > 30 µM | 
COc1cc(OC)cc(C(=O)Nc2cncc(Oc3cncc(F)c3)n2)c1 | > 30 µM | 
O=C(Nc1cncc(Oc2cncc(F)c2)n1)c1cccnn1 | > 30 µM | 
COc1cccc(C(=O)Nc2cncc(Oc3cncc(F)c3)n2)c1 |  | -5.6%
Cc1cccc(C(=O)Nc2cncc(Oc3cncc(F)c3)n2)n1 | > 30 µM | 
O=C(Nc1cncc(Oc2cncc(F)c2)n1)c1ccncn1 | > 30 µM | 
O=C(Nc1cncc(Oc2cccnc2)n1)c1cccc(Cl)c1 | 0.129 µM | 
Cc1nc(C(=O)Nc2cncc(Oc3cncc(F)c3)n2)cs1 |  | 19%
O=C(Nc1cncc(Oc2cncc(F)c2)n1)c1ccccc1 |  | -9.4%

Continued, values first:

IC50 [1] | %max [2] | Compound
0.99 µM | 1.1% | Cc1cc(C(=O)Nc2cncc(Oc3cncc(F)c3)n2)cs1
3.82 µM | -0.4% | O=C(Nc1cncc(Oc2cncc(F)c2)n1)c1cccc(F)c1
> 10 µM | 40% | O=C(Nc1cncc(Oc2cncc(F)c2)n1)c1nccs1
0.311 µM | 1.7% | Cc1ccnc(C(=O)Nc2cncc(Oc3cncc(F)c3)n2)c1
0.118 µM | 2% | O=C(Nc1cncc(Oc2cncc(F)c2)n1)c1cccc(Cl)c1
0.193 µM | 2.1% | Cc1ccnc(C(=O)Nc2cncc(Oc3cncnc3)n2)c1
> 10 µM | 15% | O=C(Nc1cncc(Oc2cncnc2)n1)c1ccsc1
8.43 µM | 22% | O=C(Nc1cncc(Oc2cncc(F)c2)n1)c1cscn1
0.111 µM | 2% | O=C(Nc1cncc(Oc2cncc(F)c2)n1)c1cc(Cl)ccn1
> 10 µM | 35% | O=C(Nc1cncc(Oc2cncnc2)n1)c1cscn1
> 10 µM | 40% | O=C(Nc1cncc(Oc2cncc(F)c2)n1)c1ccccn1
